{"source": "patent US12419877B2", "about": "“Solid forms of {[5-(3-chlorophenyl)-3-hydroxypyridine-2-carbonyl]amino}acetic acid, compositions, and uses thereof” (Akebia Therapeutics, Inc., priority 2013, dated 2025)", "test": "Solubility experiments (approximate solubility by solvent aliquot addition)", "assay_type": "physicochemical", "conditions": "thermodynamic from solid", "description": "Approximately 20 mg of Form A of Compound (1) was placed in each of 48 vials and 5 volume aliquots of the appropriate solvent systems were added to the appropriate vial. Between each addition, the mixture was checked for dissolution and if no dissolution was apparent, the mixture was warmed to ca. 50° C. and checked again. This procedure was continued until dissolution was observed or until 100 volumes of solvent had been added.", "note": "Like-named read-outs stand apart in the source and are kept apart here.", "data": [{"smiles": "O=C(O)CNC(=O)c1ncc(-c2cccc(Cl)c2)cc1O", "note": "[Form A of Compound (I), {[5-(3-chlorophenyl)-3-hydroxypyridine-2-carbonyl]amino}acetic acid]", "values": [{"measurement": "solubility", "setting": "aqueous with cosolvent or surfactant or cyclodextrin, Solvent: MeOH/Water (20%), ca. 50° C., read-out: Solubility (mg/mL) (ca. 50° C.)", "result": "< 10", "unit": "mg/mL"}, {"measurement": "solubility", "setting": "aqueous with cosolvent or surfactant or cyclodextrin, Solvent: MeOH/Water (50%), RT (ca. 22° C.), read-out: Solubility (mg/mL) RT (ca. 22° C.)", "result": "< 10", "unit": "mg/mL"}, {"measurement": "solubility", "setting": "aqueous with cosolvent or surfactant or cyclodextrin, Solvent: MeOH/Water (50%), ca. 50° C., read-out: Solubility (mg/mL) (ca. 50° C.)", "result": "< 10", "unit": "mg/mL"}, {"measurement": "solubility", "setting": "ethyl acetate/cyclohexane (1:2), organic solvent or mixture, Solvent: EtOAc/Cyclohexane (1:2), RT (ca. 22° C.), read-out: Solubility (mg/mL) RT (ca. 22° C.)", "result": "< 10", "unit": "mg/mL"}, {"measurement": "solubility", "setting": "organic solvent or mixture, Solvent: 1,2-Propanediol, RT (ca. 22° C.), read-out: Solubility (mg/mL) RT (ca. 22° C.)", "result": "< 20", "unit": "mg/mL"}, {"measurement": "solubility", "setting": "organic solvent or mixture, Solvent: 1,2-Propanediol, ca. 50° C., read-out: Solubility (mg/mL) (ca. 50° C.)", "result": 20, "unit": "mg/mL"}, {"measurement": "solubility", "setting": "organic solvent or mixture, Solvent: 1,4-Dioxane, RT (ca. 22° C.), read-out: Solubility (mg/mL) RT (ca. 22° C.)", "result": "> 200", "unit": "mg/mL"}, {"measurement": "solubility", "setting": "organic solvent or mixture, Solvent: 1,4-Dioxane, ca. 50° C., read-out: Solubility (mg/mL) (ca. 50° C.)", "result": "> 200", "unit": "mg/mL"}, {"measurement": "solubility", "setting": "organic solvent or mixture, Solvent: 1-Butanol (1-BuOH), RT (ca. 22° C.), read-out: Solubility (mg/mL) RT (ca. 22° C.)", "result": "< 20", "unit": "mg/mL"}, {"measurement": "solubility", "setting": "organic solvent or mixture, Solvent: 1-Butanol (1-BuOH), ca. 50° C., read-out: Solubility (mg/mL) (ca. 50° C.)", "result": 20, "unit": "mg/mL"}, {"measurement": "solubility", "setting": "organic solvent or mixture, Solvent: 1-Propanol (1-PrOH), RT (ca. 22° C.), read-out: Solubility (mg/mL) RT (ca. 22° C.)", "result": "< 20", "unit": "mg/mL"}, {"measurement": "solubility", "setting": "organic solvent or mixture, Solvent: 1-Propanol (1-PrOH), ca. 50° C., read-out: Solubility (mg/mL) (ca. 50° C.)", "result": 20, "unit": "mg/mL"}, {"measurement": "solubility", "setting": "organic solvent or mixture, Solvent: 2-Ethoxyethanol, RT (ca. 22° C.), read-out: Solubility (mg/mL) RT (ca. 22° C.)", "result": "< 200", "unit": "mg/mL"}, {"measurement": "solubility", "setting": "organic solvent or mixture, Solvent: 2-Ethoxyethanol, ca. 50° C., read-out: Solubility (mg/mL) (ca. 50° C.)", "result": 200, "unit": "mg/mL"}, {"measurement": "solubility", "setting": "organic solvent or mixture, Solvent: 2-Methoxyethanol, RT (ca. 22° C.), read-out: Solubility (mg/mL) RT (ca. 22° C.)", "result": "> 200", "unit": "mg/mL"}, {"measurement": "solubility", "setting": "organic solvent or mixture, Solvent: 2-Methoxyethanol, ca. 50° C., read-out: Solubility (mg/mL) (ca. 50° C.)", "result": "> 200", "unit": "mg/mL"}, {"measurement": "solubility", "setting": "organic solvent or mixture, Solvent: 2-Methyl tetrahydrofuran (2-MeTHF), RT (ca. 22° C.), read-out: Solubility (mg/mL) RT (ca. 22° C.)", "result": "> 200", "unit": "mg/mL"}, {"measurement": "solubility", "setting": "organic solvent or mixture, Solvent: 2-Methyl tetrahydrofuran (2-MeTHF), ca. 50° C., read-out: Solubility (mg/mL) (ca. 50° C.)", "result": "> 200", "unit": "mg/mL"}, {"measurement": "solubility", "setting": "organic solvent or mixture, Solvent: 2-Propanol (IPA), RT (ca. 22° C.), read-out: Solubility (mg/mL) RT (ca. 22° C.)", "result": "< 13", "unit": "mg/mL"}, {"measurement": "solubility", "setting": "organic solvent or mixture, Solvent: 2-Propanol (IPA), ca. 50° C., read-out: Solubility (mg/mL) (ca. 50° C.)", "result": 13, "unit": "mg/mL"}, {"measurement": "solubility", "setting": "organic solvent or mixture, Solvent: 3-Methyl-1-butanol, RT (ca. 22° C.), read-out: Solubility (mg/mL) RT (ca. 22° C.)", "result": "< 10", "unit": "mg/mL"}, {"measurement": "solubility", "setting": "organic solvent or mixture, Solvent: 3-Methyl-1-butanol, ca. 50° C., read-out: Solubility (mg/mL) (ca. 50° C.)", "result": "< 10", "unit": "mg/mL"}, {"measurement": "solubility", "setting": "organic solvent or mixture, Solvent: Acetone/Water (3%), RT (ca. 22° C.), read-out: Solubility (mg/mL) RT (ca. 22° C.)", "result": "< 200", "unit": "mg/mL"}, {"measurement": "solubility", "setting": "organic solvent or mixture, Solvent: Acetone/Water (3%), ca. 50° C., read-out: Solubility (mg/mL) (ca. 50° C.)", "result": 200, "unit": "mg/mL"}, {"measurement": "solubility", "setting": "organic solvent or mixture, Solvent: Acetone/Water (20%), RT (ca. 22° C.), read-out: Solubility (mg/mL) RT (ca. 22° C.)", "result": "< 200", "unit": "mg/mL"}, {"measurement": "solubility", "setting": "organic solvent or mixture, Solvent: Acetone/Water (20%), ca. 50° C., read-out: Solubility (mg/mL) (ca. 50° C.)", "result": 200, "unit": "mg/mL"}, {"measurement": "solubility", "setting": "organic solvent or mixture, Solvent: Acetone, RT (ca. 22° C.), read-out: Solubility (mg/mL) RT (ca. 22° C.)", "result": 100, "unit": "mg/mL"}, {"measurement": "solubility", "setting": "organic solvent or mixture, Solvent: Acetone, ca. 50° C., read-out: Solubility (mg/mL) (ca. 50° C.)", "result": "> 100", "unit": "mg/mL"}, {"measurement": "solubility", "setting": "organic solvent or mixture, Solvent: Acetonitrile, RT (ca. 22° C.), read-out: Solubility (mg/mL) RT (ca. 22° C.)", "result": "< 13", "unit": "mg/mL"}, {"measurement": "solubility", "setting": "organic solvent or mixture, Solvent: Acetonitrile, ca. 50° C., read-out: Solubility (mg/mL) (ca. 50° C.)", "result": 13, "unit": "mg/mL"}, {"measurement": "solubility", "setting": "organic solvent or mixture, Solvent: Anisole, RT (ca. 22° C.), read-out: Solubility (mg/mL) RT (ca. 22° C.)", "result": "< 40", "unit": "mg/mL"}, {"measurement": "solubility", "setting": "organic solvent or mixture, Solvent: Anisole, ca. 50° C., read-out: Solubility (mg/mL) (ca. 50° C.)", "result": 40, "unit": "mg/mL"}, {"measurement": "solubility", "setting": "organic solvent or mixture, Solvent: Benzonitrile, RT (ca. 22° C.), read-out: Solubility (mg/mL) RT (ca. 22° C.)", "result": "< 10", "unit": "mg/mL"}, {"measurement": "solubility", "setting": "organic solvent or mixture, Solvent: Benzonitrile, ca. 50° C., read-out: Solubility (mg/mL) (ca. 50° C.)", "result": "< 10", "unit": "mg/mL"}, {"measurement": "solubility", "setting": "organic solvent or mixture, Solvent: Benzyl alcohol, RT (ca. 22° C.), read-out: Solubility (mg/mL) RT (ca. 22° C.)", "result": "< 68", "unit": "mg/mL"}, {"measurement": "solubility", "setting": "organic solvent or mixture, Solvent: Benzyl alcohol, ca. 50° C., read-out: Solubility (mg/mL) (ca. 50° C.)", "result": 68, "unit": "mg/mL"}, {"measurement": "solubility", "setting": "organic solvent or mixture, Solvent: Chloroform, RT (ca. 22° C.), read-out: Solubility (mg/mL) RT (ca. 22° C.)", "result": "< 10", "unit": "mg/mL"}, {"measurement": "solubility", "setting": "organic solvent or mixture, Solvent: Chloroform, ca. 50° C., read-out: Solubility (mg/mL) (ca. 50° C.)", "result": "< 10", "unit": "mg/mL"}, {"measurement": "solubility", "setting": "organic solvent or mixture, Solvent: Cumene, RT (ca. 22° C.), read-out: Solubility (mg/mL) RT (ca. 22° C.)", "result": "< 10", "unit": "mg/mL"}, {"measurement": "solubility", "setting": "organic solvent or mixture, Solvent: Cumene, ca. 50° C., read-out: Solubility (mg/mL) (ca. 50° C.)", "result": "< 10", "unit": "mg/mL"}, {"measurement": "solubility", "setting": "organic solvent or mixture, Solvent: Cyclohexane, RT (ca. 22° C.), read-out: Solubility (mg/mL) RT (ca. 22° C.)", "result": "< 10", "unit": "mg/mL"}, {"measurement": "solubility", "setting": "organic solvent or mixture, Solvent: Cyclohexane, ca. 50° C., read-out: Solubility (mg/mL) (ca. 50° C.)", "result": "< 10", "unit": "mg/mL"}, {"measurement": "solubility", "setting": "organic solvent or mixture, Solvent: Cyclohexanone, RT (ca. 22° C.), read-out: Solubility (mg/mL) RT (ca. 22° C.)", "result": "< 200", "unit": "mg/mL"}, {"measurement": "solubility", "setting": "organic solvent or mixture, Solvent: Cyclohexanone, ca. 50° C., read-out: Solubility (mg/mL) (ca. 50° C.)", "result": 200, "unit": "mg/mL"}, {"measurement": "solubility", "setting": "organic solvent or mixture, Solvent: Dichloromethane (DCM), RT (ca. 22° C.), read-out: Solubility (mg/mL) RT (ca. 22° C.)", "result": "< 10", "unit": "mg/mL"}, {"measurement": "solubility", "setting": "organic solvent or mixture, Solvent: Dichloromethane (DCM), ca. 50° C., read-out: Solubility (mg/mL) (ca. 50° C.)", "result": "< 10", "unit": "mg/mL"}, {"measurement": "solubility", "setting": "organic solvent or mixture, Solvent: Diethyl ether, RT (ca. 22° C.), read-out: Solubility (mg/mL) RT (ca. 22° C.)", "result": "< 10", "unit": "mg/mL"}, {"measurement": "solubility", "setting": "organic solvent or mixture, Solvent: Diethyl ether, ca. 50° C., read-out: Solubility (mg/mL) (ca. 50° C.)", "result": 10, "unit": "mg/mL"}, {"measurement": "solubility", "setting": "organic solvent or mixture, Solvent: Diisopropyl ether (DIPE), RT (ca. 22° C.), read-out: Solubility (mg/mL) RT (ca. 22° C.)", "result": "< 10", "unit": "mg/mL"}]}]}
